Test system: BMDM cells
Experiment: Flow cytometry apoptosis assay kit (pyroptosis) in BMDM cells under LPS/Nigericin
Assay type: cell-based, mouse
Conditions: vs LPS/Nigericin group, more pronounced at higher concentrations
Description: Pyroptosis is a form of programmed cell death, typically triggered by the activation of inflammasomes within the cell. It is characterized by the rupture of the cell membrane, releasing cellular contents (such as Lactate Dehydrogenase, LDH), which enhances the inflammatory response. Unlike apoptosis, pyroptosis is initiated through the activation of inflammasomes, involving distinct molecular mechanisms, and is often accompanied by cell swelling and rupture. In contrast, apoptosis is triggered by the activation of Caspase-3, leading to systemic degradation within the cell while maintaining the integrity of the cell membrane. The cell undergoes controlled self-degradation without provoking an immune response. […]
Figure 4 F14 inhibits NLRP3 inflammasome activation, leading to cell pyroptosis. […] All values given are best readings. / LPS/Nigericin: Q1-UL 0.83%, Q1-UR 79.53%, Q1-LL 14.81%, Q1-LR 4.83% uncertain / F14 10 μM: Q1-UL 0.52%, Q1-UR 48.44%, Q1-LL 45.87%, Q1-LR 5.17% uncertain / F14 5 μM: Q1-UL 1.05%, Q1-UR 58.47%, Q1-LL 36.16%, Q1-LR 4.32% uncertain / F14 2.5 μM: Q1-UL 0.97%, Q1-UR 69.26%, Q1-LL 24.69%, Q1-LR 5.08% uncertain / The Control plot in panel A (Q1-UL 0.83%, Q1-UR 24.77%, Q1-LL 69.90%, Q1-LR 4.49%) is left out because it is not a substance. / LPS/Nigericin is the stimulus rather than a test compound. […]

Cc1ccc(C(=O)/C=C/c2cccc(O)c2)c(C)c1 [Compound F14, (E)-1-(2,4-dimethylphenyl)-3-(3-hydroxyphenyl)propyl-2-en-1-one]
viable cell percentage and late apoptotic cell percentage: significantly improved

Reference: PMC12388496, “Discovery of (E)-1,3-Diphenyl-2-Propen-1-One Derivatives as Potent and Orally Active NLRP3 Inflammasome Inhibitors for Colitis” (Molecules, 2025)
